Reference: PMC11484942, “Rumicidins are a family of mammalian host-defense peptides plugging the 70S ribosome exit tunnel” (Nature Communications, 2024)

Test system: E. coli ATCC 25922
Assay: Systemic septicemia infection mouse model
Type: in vivo, BALB/c mice
Details: 10 mg/kg IP once (1 h post-infection); n = 5
Protocol: All animal studies were performed at the State Research Center for Applied Microbiology & Biotechnology (SRCAMB) in Obolensk (Russia), approved by the Institutional Bioethics Committee of the SRCAMB (Animal Research Protocol #VP-2022/1) and performed according to the Russian Federal rules and Directive 2010/63/EU of the European Parliament and of the Council. Experiments were performed with female eight- to ten-week-old BALB/c mice (“Andreevka” laboratory animal nursery FMBA, Russia). The animals were housed in groups of 5 in polycarbonate cages, and the following housing conditions were used: 12/12 h dark/light cycle, ambient temperature of 20 ÷ 22 °C, 50% humidity. Food and water were provided ad libitum. In vivo efficacy of rumicidins was tested in the mouse septicemia model induced by E. coli ATCC 25922. Mice were infected with 0.5 mL of bacterial suspension (1 × 10^6 CFU per animal) in saline supplemented with 2.5% mucin (w/v) via intraperitoneal (IP) injection. A total of 4 groups with 5 animals were used. […] The second group received saline (as a vehicle control) and administered IP once (1 h post-infection). Two other groups received rumicidin-1 or rumicidin-3 each administered IP three times (1, 4, and 8 h post-infection) at a dose of 10 mg/kg or of 5 mg/kg, respectively. Survival was monitored for 7 days. After that survived animals were euthanized by CO2 asphyxiation. […]

## O=C(O)c1cn(C2CC2)c2cc(N3CCNCC3)c(F)cc2c1=O [Ciprofloxacin]
  survival: survival of all mice
